According to patent publication US12162888B2, “Carboxamides as ubiquitin-specific protease inhibitors” (Valo Early Discovery, Inc., priority 2018, dated 2024):

Molecular target: T1, USP28 (USP28-5(1-1077)-TEV-6*His; LifeSensors) (Homo sapiens, UniProt Q96RU2)
T1 construct: construct USP28 (USP28-5(1-1077)-TEV-6*His; LifeSensors); TEV cleavage site (C); 6xHis (C); purchased LifeSensors
T1 sequence (Q96RU2 1-1077): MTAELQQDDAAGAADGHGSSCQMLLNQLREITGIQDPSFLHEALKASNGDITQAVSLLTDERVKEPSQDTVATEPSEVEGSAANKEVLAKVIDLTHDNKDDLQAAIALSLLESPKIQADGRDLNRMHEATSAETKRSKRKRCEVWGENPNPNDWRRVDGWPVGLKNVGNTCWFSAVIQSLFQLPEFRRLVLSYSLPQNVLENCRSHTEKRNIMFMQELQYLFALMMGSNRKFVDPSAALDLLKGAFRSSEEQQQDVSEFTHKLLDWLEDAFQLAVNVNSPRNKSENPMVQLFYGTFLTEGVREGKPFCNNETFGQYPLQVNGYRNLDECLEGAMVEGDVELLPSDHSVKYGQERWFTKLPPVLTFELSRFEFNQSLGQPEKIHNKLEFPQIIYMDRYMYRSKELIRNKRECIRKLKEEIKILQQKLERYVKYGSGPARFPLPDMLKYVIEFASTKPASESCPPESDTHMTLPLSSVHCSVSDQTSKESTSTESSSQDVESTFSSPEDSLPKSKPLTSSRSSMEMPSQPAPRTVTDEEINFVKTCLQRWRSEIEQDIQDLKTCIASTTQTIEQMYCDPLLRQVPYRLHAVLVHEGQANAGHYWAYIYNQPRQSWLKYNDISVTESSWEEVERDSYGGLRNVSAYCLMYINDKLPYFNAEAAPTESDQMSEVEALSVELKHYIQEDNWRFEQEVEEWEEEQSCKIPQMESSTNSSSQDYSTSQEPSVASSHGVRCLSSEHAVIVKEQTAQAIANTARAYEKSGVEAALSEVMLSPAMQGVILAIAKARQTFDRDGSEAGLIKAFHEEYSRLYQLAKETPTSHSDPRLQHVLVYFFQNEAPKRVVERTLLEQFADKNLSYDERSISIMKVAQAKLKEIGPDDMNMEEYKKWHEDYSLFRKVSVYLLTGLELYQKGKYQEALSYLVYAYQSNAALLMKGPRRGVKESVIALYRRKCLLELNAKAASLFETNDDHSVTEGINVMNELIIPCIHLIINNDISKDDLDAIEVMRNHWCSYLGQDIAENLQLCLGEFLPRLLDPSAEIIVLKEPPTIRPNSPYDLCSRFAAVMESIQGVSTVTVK
Experiment: Ubiquitin-Rhodamine 110 Assay for USP28 Activity, Example A-1(b)
Format: biochemical
Method: Example A-1(b): Biochemical Assay: Ubiquitin-Rhodamine 110 Assay for USP28 Activity
Each assay was performed in a final volume of 20 μL in assay buffer containing 20 mM Tris-HCl (pH 8.0, (1M Tris-HCl, pH 8.0 solution; Corning 46-031-CM)), 2 mM CaCl2 (1M Calcium Chloride solution; Sigma #21114) 2 mM BME (2-Mercaptoethanol; Sigma 63689-25ML-F), 0.01% Prionex (0.22 μM filtered, Sigma #G-0411), and 0.01% Triton X-100. Stock compound solutions were stored at −20° C. as 10 mM in DMSO. Up to 1 month prior to the assay, 2 mM test compounds were pre-dispensed into assay plates (Black, low volume; Corning #3820) and frozen at −20° C. Prestamped assay plates were allowed to come to room temperature on the day of the assay. For the screen, 100 nL of 2 mM was pre-dispensed for a final screening concentration of 10 μM (DMSO(fc)=0.5%). […] Plates were incubated stacked for 90 minutes at room temperature before fluorescence was read on the Envision (Excitation at 485 nm and Emission at 535 nm; Perkin Elmer) or on the PheraSTAR (Excitation at 485 nm and Emission at 535 nm; BMG Labtech).
For follow-up studies, each assay was performed in a final volume of 15 μL in assay buffer containing 20 mM Tris-HCl (pH 8.0, (1M Tris-HCl, pH 8.0 solution; Corning 46-031-CM)), 3 mM BME (2-Mercaptoethanol; Sigma 63689-25ML-F), 0.03% BGG (0.22 μM filtered, Sigma, G7516-25G), and 0.01% Triton X-100 (Sigma, T9284-10L). Nanoliter quantities of either an 8-point or 10-point, 3-fold serial dilution in DMSO was pre-dispensed into assay plates (Perkin Elmer, ProxiPlate-384 F Plus, #) for a final test concentration of either 25 μM to 11 nM or 25 μM to 1.3 nM, respectively. Enzyme USP28, construct USP28 (USP28-5(1-1077)-TEV-6*His; LifeSensors) concentration and incubation times were optimized for the maximal signal-to-background while maintaining initial velocity conditions at a fixed substrate concentration. The final concentration of the enzyme in the assay was […]. Final substrate (Ub-Rh110; Ubiquitin-Rhodamine 110, R&D Systems #U-555) concentration was 25 nM with [Ub-Rh110]<<Km. 5 μL of 2× enzyme was added to assay plates (pre-stamped with compound) preincubated with USP28 for 30 minutes and then 5 μL of 2× Ub-Rh110 was added to assay plates. Plates were incubated stacked for 20 minutes at room temperature before 5 μL of stop solution was added (final concentration of 10 mM citric acid (Sigma, 251275-500G)). Fluorescence was read on the Envision (Excitation at 485 nm and Emission at 535 nm; Perkin Elmer) or on the PheraSTAR (Excitation at 485 nm and Emission at 535 nm; BMG Labtech).
For assay formats Example A-1(a), A-1(b), and A-2, data were reported as percent inhibition compared with control wells based on the following equation: % inh=1−((FLU−AveLow)/(AveHigh−AveLow)) where FLU=measured Fluorescence, AveLow=average Fluorescence of no enzyme control (n=16), and AveHighh=average Fluorescence of DMSO control (n=16). IC50 values were determined by curve fitting of the standard 4 parameter logistic fitting algorithm included in the Activity Base software package: IDBS XE Designer Model 205. Data is fitted using the Levenburg Marquardt algorithm.

Structure (SMILES) | USP28 A-1(b) IC50 range
Cc1ccc2c(N)c(C(=O)N[C@H]3CCc4cc(N5CC6CNCC(C5)O6)cc(F)c4C3)sc2n1 (single isomer, unassigned) [Example 11-39] | ++ (“++”: 0.2-2 μM)
Cc1ccc2c(N)c(C(=O)N[C@H]3CCc4cc(N5CCNCC5)ccc4C3)sc2n1 (single isomer, unassigned) [Example 11-21] | ++ (“++”: 0.2-2 μM)
Cc1cnc2c(N)c(C(=O)N[C@@H]3CCc4cc(N5C[C@H]6C[C@@H]5CN6)ccc4C3)sc2n1 (single isomer, unassigned) [Example 11-32] | ++ (“++”: 0.2-2 μM)
Cc1ccc2c(N)c(C(=O)N[C@@H]3CCc4cc(N5CC6CNCC(C5)O6)cc(F)c4C3)sc2n1 (single isomer, unassigned) [Example 11-40] | ++++ (“++++”: 0.001-0.05 μM)
CN[C@@H]1CCN(c2ccc3c(c2)CC[C@H](NC(=O)c2sc4nc(C)cnc4c2N)C3)C1 (single isomer, unassigned) [Example 11-27] | ++ (“++”: 0.2-2 μM)
Cc1cnc2c(N)c(C(=O)N[C@@H]3CCc4cc(N5C[C@@H]6C[C@H]5CN6)ccc4C3)sc2n1 (single isomer, unassigned) [Example 11-30] | ++ (“++”: 0.2-2 μM)
Cc1cnc2c(N)c(C(=O)N[C@@H]3CCc4cc(N5CCNCC5)c(F)cc4C3)sc2n1 (single isomer, unassigned) [Example 21-11] | ++ (“++”: 0.2-2 μM)
Cc1cnc2c(N)c(C(=O)N[C@H]3CCc4cc(N5C[C@@H]6C[C@H]5CN6)ccc4C3)sc2n1 (single isomer, unassigned) [Example 11-29] | ++ (“++”: 0.2-2 μM)
Cc1cnc2c(N)c(C(=O)N[C@H]3CCc4cc(N5CCNCC5)cc(F)c4C3)sc2n1 (single isomer, unassigned) [Example 11-38] | +++ (“+++”: 0.05-0.2 μM)
Cc1cnc2c(N)c(C(=O)N[C@H]3CCc4c(ccc(N5CCNCC5)c4F)C3)sc2n1 (single isomer, unassigned) [Example 21-10] | + (“+”L>2 μM)
Cc1ccc2c(N)c(C(=O)N[C@H]3COc4cc(N5CCNCC5)ccc4[C@H]3C)sc2n1 (single isomer, unassigned) [Example 11-15] | + (“+”L>2 μM)
Cc1ccc2c(N)c(C(=O)N[C@@H]3COc4cc(N5CCNCC5)ccc4[C@@H]3C)sc2n1 (single isomer, unassigned) [Example 11-18] | + (“+”L>2 μM)
Cc1cnc2c(N)c(C(=O)N[C@H]3CCc4cc(N5C[C@H]6C[C@@H]5CN6)ccc4C3)sc2n1 (single isomer, unassigned) [Example 11-31] | ++ (“++”: 0.2-2 μM)
Cc1cnc2c(N)c(C(=O)N[C@@H]3CCc4cc(N5CCNCC5)ccc4C3)sc2n1 (single isomer, unassigned) [Example 11-20] | + (“+”L>2 μM)
Cc1ccc2c(N)c(C(=O)N[C@H]3COc4cc(N5CCNCC5)ccc4[C@@H]3C)sc2n1 (single isomer, unassigned) [Example 11-17] | + (“+”L>2 μM)
Cc1cnc2c(N)c(C(=O)N[C@H]3CCc4cc(N5CCNCC5)c(F)cc4C3)sc2n1 (single isomer, unassigned) [Example 21-12] | ++++ (“++++”: 0.001-0.05 μM)
Cc1ccc2c(N)c(C(=O)N[C@@H]3CCc4c(C#N)c(N5CCNCC5)cc(F)c4C3)sc2n1 (single isomer, unassigned) [Example 14-9] | + (“+”L>2 μM)
Cc1nc2sc(C(=O)N[C@@H]3CCc4cc(N5CCNCC5)ccc4C3)c(N)c2s1 (single isomer, unassigned) [Example 11-34] | ++ (“++”: 0.2-2 μM)
Cc1nc2sc(C(=O)N[C@H]3CCc4cc(N5CCNCC5)ccc4C3)c(N)c2s1 (single isomer, unassigned) [Example 11-33] | + (“+”L>2 μM)
Cc1ccc2c(N)c(C(=O)N[C@H]3CCc4c(C#N)c(N5CCNCC5)cc(F)c4C3)sc2n1 (single isomer, unassigned) [Example 14-10] | +++ (“+++”: 0.05-0.2 μM)
CN[C@H]1CCN(c2ccc3c(c2)CC[C@H](NC(=O)c2sc4nc(C)cnc4c2N)C3)C1 (single isomer, unassigned) [Example 11-25] | ++ (“++”: 0.2-2 μM)
Cc1cnc2c(N)c(C(=O)N[C@@H]3CCc4cc(N5CCNCC5)cc(F)c4C3)sc2n1 (single isomer, unassigned) [Example 11-37] | + (“+”L>2 μM)
Cc1cnc2c(N)c(C(=O)N[C@@H]3CCc4c(ccc(N5CCNCC5)c4F)C3)sc2n1 (single isomer, unassigned) [Example 21-9] | ++ (“++”: 0.2-2 μM)
Cc1cnc2c(N)c(C(=O)N[C@H]3CCc4cc(N5CCNCC5)ccc4C3)sc2n1 (single isomer, unassigned) [Example 11-19] | ++ (“++”: 0.2-2 μM)
Cc1ccc2c(N)c(C(=O)N[C@@H]3CCc4cc(N5CCNCC5)ccc4C3)sc2n1 (single isomer, unassigned) [Example 11-22] | ++ (“++”: 0.2-2 μM)
CN[C@H]1CCN(c2ccc3c(c2)CC[C@@H](NC(=O)c2sc4nc(C)cnc4c2N)C3)C1 (single isomer, unassigned) [Example 11-26] | + (“+”L>2 μM)
CN[C@@H]1CCN(c2ccc3c(c2)CC[C@@H](NC(=O)c2sc4nc(C)cnc4c2N)C3)C1 (single isomer, unassigned) [Example 11-28] | + (“+”L>2 μM)
Cc1ccc2c(N)c(C(=O)N[C@H]3COc4cc(N5CCNCC5)ccc4[C@@H]3C)sc2n1 (single isomer, unassigned) [Example 11-16] | + (“+”L>2 μM)
